# System: ERK1/ERK2
# Test: LPS-induced MAP kinase activation, Western blot (ERK1/ERK2)
# Format: cell-based, mouse
# Details: RAW 264.7 macrophages, LPS in the presence of CO
# Description: Animals. Male C57BL/6 and IL-10 (−/−) mice were purchased from Jackson Laboratory (Bar Harbor, Me.), and allowed to acclimate for one week with rodent chow and water ad libitum. The MKK (−/−) mice were generated as previously described [Lu, et al., EMBO J. 18:1845-1857 (1999)]. Wild type littermates were used as controls. All animals were housed in accordance with guidelines from the American Association for Laboratory Animal Care and Research Protocols and were approved by the Animal Care and Use Committee of Yale University School of Medicine. Reagents. All reagents were purchased from Sigma Chemical Co. (St Louis, Mo.) unless specified otherwise. Plasmid Construct. Plasmid pSFFV/HO-1 was constructed by insertion of the rat HO-1 cDNA [Shibahara, et al., Proc. Natl. Acad. Sci. USA. 82: 7865-7869 (1985)] downstream of the Friend spleen focus-forming virus 5′ long-terminal repeat in the mammalian expression vector pSFFV/neo [Fuhlbrigge, et al, Proc. Natl. Acad. Sci. USA. 85: 5649-5653 (1988)] (kindly provided by Stanley Korsmeyer). Transfection. […] Gas samples were taken by the analyzer through a port in the top of the chambers at a rate of 1 L/min and analyzed by electrochemical detection, with a sensitivity of 10-600 ppm. Concentration levels were measured hourly and there were no fluctuations in the CO concentrations once the chamber had equilibrated (approximately 5 min). […]
structure (smiles),measurement,value
"[C-]#[O+] [CO, carbon monoxide]",LPS-induced ERK1/ERK2 MAP kinase activation,not affected

# Source: patent US7678390B2, “Carbon monoxide as a biomarker and therapeutic agent” (priority 1999, dated 2010)
